In US10308617B2, “Triazole benzamide derivatives and the compositions and methods of treatment regarding the same” (An2H Discovery Limited, priority 2016, dated 2019):

Target: T1, Parkin ligase (Homo sapiens, UniProt O60260)
T1 sequence (O60260 1-465): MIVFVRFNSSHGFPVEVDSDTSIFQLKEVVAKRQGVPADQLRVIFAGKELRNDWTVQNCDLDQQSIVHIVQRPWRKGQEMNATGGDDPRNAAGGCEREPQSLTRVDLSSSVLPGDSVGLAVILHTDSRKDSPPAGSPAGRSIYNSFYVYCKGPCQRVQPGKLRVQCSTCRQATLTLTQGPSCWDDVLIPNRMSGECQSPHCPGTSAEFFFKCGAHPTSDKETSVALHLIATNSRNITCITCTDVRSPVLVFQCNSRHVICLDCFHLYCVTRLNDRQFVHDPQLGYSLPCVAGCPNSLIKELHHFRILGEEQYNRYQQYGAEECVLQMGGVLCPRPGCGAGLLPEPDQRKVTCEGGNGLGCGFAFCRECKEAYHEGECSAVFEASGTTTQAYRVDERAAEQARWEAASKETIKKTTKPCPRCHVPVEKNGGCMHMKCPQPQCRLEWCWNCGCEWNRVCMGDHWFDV
Assay: Activity-Based Probe Assay using an Ubiquitin vinyl sulfone probe (TR-FRET)
Format: biochemical
Conditions: not given
Experimental: An Ubiquitin vinyl sulfone probe can be used that irreversibly binds to the active site cysteine of Parkin ligase. Covalent attachment of the probe to the Parkin can be monitored by TR-FRET. Candidate activator compounds can be identified by increasing the activity of Parkin ligase due to an increase in TR-FRET signal. Screening for activating compounds can be distinguished from the controls as follows: • 100% activation signal=Heat activated Parkin+100 nM control activator in DMSO. • 0% activation signal=Heat activated Parkin+DMSO only. • Parkin activators can be identified by an increase of the 0% activation signal TR-FRET signal.
• Assay Plate: White 384 well plate (Corning 3572) • Enzyme: Parkin-His tagged 203 μM (10.5 mg/ml) • Probe: Ubiquitin vinyl-sulfone (HA-Ub-VS Boston Biochem U-212) • DMSO: DMSO (Sigma cat # D4540-100ML) • Reaction Buffer: 50 mM HEPES (pH 8.5), 150 mM NaCl, 0.01% Tween 20, 0.1% BSA • Detection Buffer: 50 mM HEPES (pH 8.5), 150 mM NaCl, 0.01% Tween 20, 0.1% BSA, 800 mM KF • Detection Reagent A: 2.6 nM Anti-6HIS-Eu cryptate and 40 nM Anti-HA-XL665 in detection buffer • Eu cryptate: Anti-6HIS-Eu cryptate (CisBio 61HISKLA) • XL665: Anti-HA-XL665 (CisBio 610HAXLA) Enzyme Reaction (15 min pre incubation Parkin with activator only) • Parkin: 40 nM • HA-Ub-VS Probe: 70 nM • Activator/DMSO: 2× Activator/2% DMSO • Reaction time: 60 minutes • Temperature: 22° C. • Total volume: 10 μl reaction Detection Reaction • Take 10 μl of Enzyme Reaction above and add 10 μl detection Reagent A under the following conditions: • Reaction time: 60 minutes • Temperature: 22° C. • Total volume: 20 μl
Assay procedure (Using HP D-300 compound dispenser and Bravo for the operation): • 1) Heat activate Parkin in reaction buffer (500 μl/1.5 ml tube: Eppendorf Thermomixer 5 minutes, 400 rpm at 58° C. and put on ice until needed). • 2) Load assay plate wells with 4.8 μl 84.5 nM Parkin in reaction buffer by use of Bravo. • 3) Deliver 0.2 μl 200× activator candidates in DMSO by use of HP D-300 compound dispenser. Highest 200× concentration=[…] and then twofold dilutions. • 4) Spin 1000 rpm, 2 minutes, at room temp. • 5) Incubate plate for 15 minutes at room temp. • 6) Add 5 μl 140 nM HA-Ub-VS Probe in reaction buffer by use of Bravo. • 7) Spin 1000 rpm, 2 minutes, at room temp. • 8) Incubate plate for 60 minutes at room temp. • 9) Add 10 μl 2.6 nM Anti-6HIS-Eu cryptate and 40 nM Anti-HA-XL665 in detection buffer. • 10) Spin 1000 rpm, 2 minutes, at room temp. • 11) Incubate plate for 60 minutes at room temp. • 12) Read plates on Perkin Elmer Envision instrument with the following parameters: • LANCE dual laser protocol loaded into the Envision® software • Top Mirror: LANCE/DELFIA Duel/Bias (Bar code 446) • Emission Filter: APC 665 EM (Bar code 205) • 2nd Emission Filter: Europium 615 EM (Bar code 203) • Read 655 nm (channel 1) and 615 nm (channel 2) wavelengths on Envision®
Data Analysis: The Data can be read in CSV files. There are two tables in those CSV files, which are the values of 655 nm (channel 1) and 615 nm (channel 2) wavelengths respectively. The data is converted to an HTRF Ratio=(Channel 1/Channel 2)*10,000
The average of all the 0 uM controls (DMSO only)=BKGD (Background—0% activation). Subtract BKGD from each HTRF Ratio value=HTRF-BKGD. The average of all the […] 100 nM control activator in DMSO controls=Max (100% activation). The following equation is then used to calculate % Activation for each well/candidate as follows: % Activation=(HTRF-BKGD/Max)*100.
Graphpad Prisim was used with Transform X values: X=Log(X) and nonlinear regression (dose-response-stimulation): Log(agonist) vs Response—variable slope (four parameters) with constrains set to Bottom=0 and Top=100.
The Activity-Based Probe Assay was performed with various compounds in Tables 1-3.

Structure (SMILES)	Parkin Ligase reaction with the Activity-based Ubiquitin vinyl sulfone probe
O=C(/C=C/c1ccccc1)Nc1nc(NC(=O)c2ccccc2)nn1-c1ccccc1 [Compound C, N-(5-cinnamamido-1-phenyl-1H-1,2,4-triazol-3-yl)benzamide]	increases

Same assay, conditions: Parkin activation, HA-Ub-VS probe, heat activated Parkin; read-out: Probe Assay EC50 (μM) [Example 2]

Structure (SMILES)	EC50
CC(C)C(=O)Nc1nc(Nc2ncnc3ccccc23)n(-c2ccccc2)n1 [Compound K1]	9.2 µM
O=C(/C=C/c1ccccc1)Nc1nc(NC(=O)c2ccccc2)nn1-c1ccccc1 [Compound C, N-(5-cinnamamido-1-phenyl-1H-1,2,4-triazol-3-yl)benzamide]	15.1 µM
O=C(Nc1nc(Nc2nc(N3CCCC3)c3ccccc3n2)n(-c2ccccc2)n1)c1ccccc1 [Compound B1]	> 100 µM
O=C(Nc1nc(Nc2ncnc3ccccc23)n(-c2ccccc2)n1)c1ccccc1 [Compound L, N-[1-phenyl-5-(quinazolin-4-ylamino)-1,2,4-triazol-3-yl]benzamide]	1.8 µM
COc1ccc(-n2nc(NC(=O)c3ccccc3)nc2NC(=O)c2ccccc2)cc1 [Compound F2]	12 µM
CC(=O)Nc1nc(NC(C)=O)n(-c2ccccc2)n1 [Compound B]	> 100 µM
Cc1ccccc1C(=O)Nc1nc(NC(=O)c2ccccc2)n(-c2ccccc2)n1 [Compound H]	> 100 µM
O=C(Nc1nc(-c2ccccn2)nn1-c1ccccc1)c1ccccc1 [T]	> 100 µM
C=CC(=O)Nc1nc(NC(=O)c2ccccc2)nn1-c1ccccc1 [Compound L2]	> 100 µM
O=C(Nc1nc(Nc2ncnc3ccccc23)n(-c2ccccc2)n1)c1cccs1 [Compound C1]	3.7 µM
O=C(Nc1nc(NC(=O)c2ccccc2)n(-c2cccc3ncccc23)n1)c1ccccc1 [Compound P2]	> 100 µM
O=C(/C=C/c1ccccc1)Nc1nc(NC(=O)c2ccccc2)nn1-c1ccccn1 [Compound U1]	25.9 µM
O=C(Nc1nc(NC(=O)c2ccc(I)cc2)n(-c2ccccc2)n1)c1ccc(I)cc1 [D]	> 100 µM
Cc1ccccc1C(=O)Nc1nc(-c2ccccn2)nn1-c1ccccc1 [Compound Q2]	26 µM
O=C(Nc1nc(NC(=O)c2ccc3ccccc3n2)n(-c2ccccc2)n1)c1ccccc1 [Compound B2]	4 µM
CCN(CC)c1nc(Nc2nc(NC(=O)c3ccccc3)nn2-c2ccccc2)nc2ccccc12 [X]	> 100 µM
c1ccc(-n2nc(-c3ccccn3)nc2Nc2ncnc3ccccc23)cc1 [Compound U2]	22 µM
CN1CCC(C(=O)Nc2nc(Nc3ncnc4ccccc34)n(-c3ccccc3)n2)CC1 [Compound D1]	38.9 µM
